According to patent US8546608B2, “Proteasome inhibitors and methods of using the same” (Cephalon, Inc., priority 2003, dated 2013):

Tests used:
[1] = target: T1, 20S Human Erythrocyte Proteasome (HEP) (Homo sapiens, UniProt P20618+P28074); assay: Chymotrypsin-like activity of 20S Human Erythrocyte Proteasome (HEP), IC50 determination; type: biochemical; conditions: assay of Example C, inhibition of HEP
T1 construct: 20S Human Erythrocyte Proteasome (HEP), purchased from Immatics Biotechnologies Inc; purchased Immatics Biotechnologies Inc., Tübingen, Germany; host or cells: human erythrocytes (natural source)
How it was run: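 20S proteasome at 0.2 μg/mL (about 0.6 nM catalytic sites) in 20 mM Tris with 0.04% SDS, preincubated 15 min at 37° C with inhibitor before Suc-LLVY-AMC (100 μM final). AMC fluorescence read in the linear range; triplicates, IC50 from concentration series.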

[2] = target: T2, proteasome in Molt-4 cells (human leukemia) (Homo sapiens, UniProt P20618+P28074); type: cell-based; conditions: assay of Example E, inhibition of MOLT4; read-out: MOLT4 (EC50)
T2 sequence (P28074 60-263): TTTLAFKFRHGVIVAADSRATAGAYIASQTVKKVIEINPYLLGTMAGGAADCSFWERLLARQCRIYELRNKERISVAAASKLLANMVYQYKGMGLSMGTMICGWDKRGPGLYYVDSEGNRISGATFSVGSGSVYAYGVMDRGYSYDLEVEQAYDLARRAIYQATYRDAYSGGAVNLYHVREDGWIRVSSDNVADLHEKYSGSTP
T2 sequence (P20618 29-241): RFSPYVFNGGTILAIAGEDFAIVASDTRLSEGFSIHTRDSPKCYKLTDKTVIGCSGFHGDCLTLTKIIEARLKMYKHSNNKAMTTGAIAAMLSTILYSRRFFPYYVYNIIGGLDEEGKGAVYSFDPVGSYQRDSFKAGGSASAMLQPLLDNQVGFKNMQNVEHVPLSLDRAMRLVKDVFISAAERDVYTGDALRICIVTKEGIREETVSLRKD
How it was run: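 Intact Molt-4 cells (6×10^6 cells/mL) in HEPES-buffered saline were preincubated with inhibitor 15 min at 37 °C, then given cell-permeable MeOSuc-FLF-AFC at 25 μM final.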

| IC50 [1] [nM] | EC50 [2] [nM] | SMILES |
| --- | --- | --- |
| < 10 | > 10000 | CC(C)C[C@H](NC(=O)[C@H](CCCNC(=N)N[N+](=O)[O-])NC(=O)CSc1ncccn1)B(O)O [E.2.54, Boronic acid, [(1R)-1-[[(2S)-5-[[imino(nitroamino)methyl]amino]-2-[[2-(pyrimidin-2-ylsulfanyl)acetyl]amino]-1-oxopentyl]amino]-3-methylbutyl]] |
| < 10 | 2000 to 10000 | CCc1ccc(OCC(=O)N[C@@H](CCCNC(=N)N[N+](=O)[O-])C(=O)N[C@@H](CC(C)C)B(O)O)cc1 [E.2.55, Boronic acid, [(1R)-1-[[(2S)-5-[[imino(nitroamino)methyl]amino]-2-[[2-(4-ethylphenoxy)acetyl]amino]-1-oxopentyl]amino]-3-methylbutyl]] |
| < 10 | 2000 to 10000 | Cc1ccc(C)c(CC(=O)N[C@@H](CCCNC(=N)N[N+](=O)[O-])C(=O)N[C@@H](CC(C)C)B(O)O)c1 [E.2.56, Boronic acid, [(1R)-1-[[(2S)-5-[[imino(nitroamino)methyl]amino]-2-[[2-(2,5-dimethylphenyl)acetyl]amino]-1-oxopentyl]amino]-3-methylbutyl]] |
| < 10 | 2000 to 10000 | CC(C)C[C@H](NC(=O)[C@H](CCCNC(=N)N[N+](=O)[O-])NC(=O)CCCCCCC(=O)c1ccccc1)B(O)O [E.2.57, Boronic acid, [(1R)-1-[[(2S)-5-[[imino(nitroamino)methyl]amino]-2-[(8-oxo-8-phenyloctanoyl)amino]-1-oxopentyl]amino]-3-methylbutyl]] |
| < 10 | 2000 to 10000 | CC(C)C[C@H](NC(=O)[C@H](CCCNC(=N)N[N+](=O)[O-])NC(=O)CSc1ccc2ccccc2c1)B(O)O [E.2.58, Boronic acid, [(1R)-1-[[(2S)-5-[[imino(nitroamino)methyl]amino]-2-[[2-(2-naphthylsulfanyl)acetyl]amino]-1-oxopentyl]amino]-3-methylbutyl]] |
| < 10 | 2000 to 10000 | Cc1ccc(/C=C/C(=O)N[C@@H](CCCNC(=N)N[N+](=O)[O-])C(=O)N[C@@H](CC(C)C)B(O)O)cc1 [E.2.60, Boronic acid, [(1R)-1-[[(2S)-5-[[imino(nitroamino)methyl]amino]-2-[[3-(4-methylphenyl)acryl]amino]-1-oxopentyl]amino]-3-methylbutyl]] |
| < 10 | 2000 to 10000 | COc1ccc(CCCC(=O)N[C@@H](CCCNC(=N)N[N+](=O)[O-])C(=O)N[C@@H](CC(C)C)B(O)O)cc1 [E.2.61, Boronic acid, [(1R)-1-[[(2S)-5-[[imino(nitroamino)methyl]amino]-2-[[4-(4-methoxyphenyl)-butanoyl]amino]-1-oxopentyl]amino]-3-methylbutyl]] |
| < 10 | > 10000 | CC(C)C[C@H](NC(=O)[C@H](CCCNC(=N)N[N+](=O)[O-])NC(=O)Cc1ccsc1)B(O)O [E.2.62, Boronic acid, [(1R)-1-[[(2S)-5-[[imino(nitroamino)methyl]amino]-2-[(2-thiophen-3-yl-acetyl)amino]-1-oxopentyl]amino]-3-methylbutyl]] |
| < 10 | > 10000 | CC(C)C[C@H](NC(=O)[C@H](CCCNC(=N)N[N+](=O)[O-])NC(=O)CCCC(=O)c1ccsc1)B(O)O [E.2.64, Boronic acid, [(1R)-1-[[(2S)-5-[[imino(nitroamino)methyl]amino]-2-[[5-oxo-5-(thiophen-3-yl)pentanoyl]amino]-1-oxopentyl]amino]-3-methylbutyl]] |
| < 100 | > 10000 | CC(=O)N[C@@H](CCCNC(=N)N[N+](=O)[O-])C(=O)N[C@@H](CC(C)C)B(O)O [E.2.65, Boronic acid, [(1R)-1-[[(2S)-5-[[imino(nitroamino)methyl]amino]-2-[(acetyl)amino]-1-oxopentyl]amino]-3-methylbutyl]] |
| < 10 | > 10000 | CCSCC(=O)N[C@@H](CCCNC(=N)N[N+](=O)[O-])C(=O)N[C@@H](CC(C)C)B(O)O [E.2.66, Boronic acid, [(1R)-1-[[(2S)-5-[[imino(nitroamino)methyl]amino]-2-[(2-ethylsulfanylacetyl)amino]-1-oxopentyl]amino]-3-methylbutyl]] |
| < 10 | 2000 to 10000 | CC(C)C[C@H](NC(=O)[C@H](CCCNC(=N)N[N+](=O)[O-])NC(=O)CCCCCCCCCO)B(O)O [E.2.67, Boronic acid, [(1R)-1-[[(2S)-5-[[imino(nitroamino)methyl]amino]-2-[(10-hydroxydecanoyl)amino]-1-oxopentyl]amino]-3-methylbutyl]] |
| < 10 | > 10000 | CSCC(=O)N[C@@H](CCCNC(=N)N[N+](=O)[O-])C(=O)N[C@@H](CC(C)C)B(O)O [E.2.68, Boronic acid, [(1R)-1-[[(2S)-5-[[imino(nitroamino)methyl]amino]-2-[(2-methylsulfanylacetyl)amino]-1-oxopentyl]amino]-3-methylbutyl]] |
| < 10 | > 10000 | CC(C)C[C@H](NC(=O)[C@H](CCCNC(=N)N[N+](=O)[O-])NC(=O)CCS(=O)(=O)c1ccccc1)B(O)O [E.2.70, Boronic acid, [(1R)-1-[[(2S)-5-[[imino(nitroamino)methyl]amino]-2-[[3-(benzenesulfonyl)propanoyl]amino]-1-oxopentyl]amino]-3-methylbutyl]] |
| < 10 | > 10000 | CC(=O)NCCCCCC(=O)N[C@@H](CCCNC(=N)N[N+](=O)[O-])C(=O)N[C@@H](CC(C)C)B(O)O [E.2.75, Boronic acid, [(1R)-1-[[(2S)-5-[[imino(nitroamino)methyl]amino]-2-[[6-(acetylamino)hexanoyl]amino]-1-oxopentyl]amino]-3-methylbutyl]] |
| < 10 | 2000 to 10000 | CC(C)C[C@H](NC(=O)[C@H](CCCNC(=N)N[N+](=O)[O-])NC(=O)COc1ccc(Br)cc1)B(O)O [E.2.77, Boronic acid, [(1R)-1-[[(2S)-5-[[imino(nitroamino)methyl]amino]-2-[[2-(4-bromophenoxy)acetyl]amino]-1-oxopentyl]amino]-3-methylbutyl]] |
| < 10 | 2000 to 10000 | CCc1ccc(CCC(=O)N[C@@H](CCCNC(=N)N[N+](=O)[O-])C(=O)N[C@@H](CC(C)C)B(O)O)cc1 [E.2.78, Boronic acid, [(1R)-1-[[(2S)-5-[[imino(nitroamino)methyl]amino]-2-[[3-(4-ethylphenyl)propanoyl]amino]-1-oxopentyl]amino]-3-methylbutyl]] |
| < 10 | 200 to 2000 | CCCCCCCOc1ccc(NC(=O)N[C@@H](CCCNC(=N)N[N+](=O)[O-])C(=O)N[C@@H](CC(C)C)B(O)O)cc1 [E.2.79, Boronic acid, [(1R)-1-[[(2S)-5-[[imino(nitroamino)methyl]amino]-2-[3-[4-(heptyloxy)phenyl]-ureido]-1-oxopentyl]amino]-3-methylbutyl]] |
| < 100 | 2000 to 10000 | CC(=O)CCCC(=O)N[C@@H](CCCNC(=N)N[N+](=O)[O-])C(=O)N[C@@H](CC(C)C)B(O)O [E.2.80, Boronic acid, [(1R)-1-[[(2S)-5-[[imino(nitroamino)methyl]amino]-2-[(5-oxohexanoyl)amino]-1-oxopentyl]amino]-3-methylbutyl]] |
| < 10 | < 200 | CCCCc1ccc(C(=O)N[C@H](C(=O)N[C@@H](CC(C)C)B(O)O)[C@@H](C)O)cc1 [E.3, Boronic Acid, [(1R)-1-[[(2S,3R)-3-hydroxy-2-[(4-butylbenzoyl)amino]-1-oxobutyl]amino]-3-methylbutyl]] |
| < 10 | < 200 | CC(C)C[C@H](NC(=O)[C@@H](NC(=O)c1ccc2ccccc2c1)[C@@H](C)O)B(O)O [E.3.1, Boronic acid, [(1R)-1-[[(2S,3R)-3-hydroxy-2-[(2-naphthoyl)amino]-1-oxobutyl]amino]-3-methylbutyl]] |
| < 10 | < 200 | Cc1ccc(OCC(=O)N[C@H](C(=O)N[C@@H](CC(C)C)B(O)O)[C@@H](C)O)cc1 [E.3.2] |
| < 100 | < 200 | CC(C)C[C@H](NC(=O)[C@@H](NS(=O)(=O)c1ccc2ccccc2c1)[C@@H](C)O)B(O)O [E.3.4, Boronic acid, [(1R)-1-[[(2S,3R)-3-hydroxy-2-[(naphthalene-2-sulfonyl)amino]-1-oxobutyl]amino]-3-methylbutyl]] |
| < 10 | < 200 | CCCCCCCCC(C)(C)C(=O)N[C@H](C(=O)N[C@@H](CC(C)C)B(O)O)[C@@H](C)O [E.3.6, Boronic acid, [(1R)-1-[[(2S,3R)-3-hydroxy-2-[(2,2 dimethyl-decanoyl)amino]-1-oxobutyl]amino]-3-methylbutyl]] |
| < 10 | < 200 | CC(C)C[C@H](NC(=O)[C@@H](NC(=O)c1ccc(Oc2ccccc2)cc1)[C@@H](C)O)B(O)O [E.3.7, Boronic acid, [(1R)-1-[[(2S,3R)-3-hydroxy-2-[(4-Phenoxybenzoyl)amino]-1-oxobutyl]amino]-3-methylbutyl]] |
| < 10 | < 200 | CCCOc1ccc(C(=O)N[C@H](C(=O)N[C@@H](CC(C)C)B(O)O)[C@@H](C)O)cc1 [E.3.8] |
